{"source": "paper PMC9663578", "about": "“A fluorogenic probe for predicting treatment response in non-small cell lung cancer with EGFR-activating mutations” (Nature Communications, 2022)", "key": {"[1]": {"biological_target": "T1, EGFR wild-type (Homo sapiens, UniProt P00533)", "T1 construct": "Recombinant human EGFR (amino acids 668–1210, #PR7295B); purchased Thermo Fisher PR7295B", "T1 sequence (P00533 668-1210)": "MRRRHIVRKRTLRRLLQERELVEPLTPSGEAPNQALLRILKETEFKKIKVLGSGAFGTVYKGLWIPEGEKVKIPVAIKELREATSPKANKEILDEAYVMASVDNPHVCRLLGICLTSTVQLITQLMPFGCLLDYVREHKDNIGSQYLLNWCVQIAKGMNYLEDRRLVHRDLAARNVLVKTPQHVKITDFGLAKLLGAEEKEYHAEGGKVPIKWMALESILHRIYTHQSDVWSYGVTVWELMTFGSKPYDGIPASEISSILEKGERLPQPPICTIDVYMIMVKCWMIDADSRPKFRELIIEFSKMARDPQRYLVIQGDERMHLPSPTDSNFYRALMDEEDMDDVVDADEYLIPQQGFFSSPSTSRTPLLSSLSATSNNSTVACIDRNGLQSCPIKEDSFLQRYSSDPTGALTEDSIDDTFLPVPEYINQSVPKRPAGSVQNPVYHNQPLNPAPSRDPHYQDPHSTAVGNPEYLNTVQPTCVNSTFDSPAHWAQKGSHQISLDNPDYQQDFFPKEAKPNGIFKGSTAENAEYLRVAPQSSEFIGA", "experiment": "Fluorescence turn-on response / titration of HX103 with recombinant EGFR", "format": "binding", "settings": "Supplementary Fig. 2f, n=1-3", "description": "(d) Fluorescence spectra change of HX103 (5 µ M) with increasing concentration of EGFR L858R\n(e) Fluorescence spectra change of HX103 (5 µ M ) with\nincreasing concentration of EGFR 19del (0 to 6 µM) in PBS buffer. (f) Titration curve of HX103\n(5 µM) with increasing concentration of EGFRs (0 to 6 µM). The apparent binding affinity (Kd)\nThe fluorescence titration curve was fitted on one -\nsite specific binding model. I and I0 represent the intensities of HX103 at 570 nm in the presence\nand absence of protein. Data represent average val ues ± SD, n = 3 independent experiments per\nsolution was diluted in sodium phosphate buffer (PBS, 1 M, pH=7.4) to obtain the desired final\nData analysis：The obtained fluorescence intensity at 570 nm (Excitation wavelength was 440\nwas set at 100% to normalized that of the remaining samples."}, "[2]": {"experiment": "Measurement of optical properties", "format": "physicochemical", "settings": "for Fluorescence intensity, HX103 only: Fig. 2a", "procedure": "page 66: […] Measurement of optical properties In the study, UV-vis spectra of the probes were determined on a Hitachi U-2910. The fluorescence spectroscopic experiments were performed on BioTek microplate reader and Horiba Jobin Yvon - Edison Fluoromax-4. Absolute fluorescence quantum efficiency was measured by an absolute quantum yield spectrometer (Horiba Jobin Yvon-Edison Fluoromax-4). The tested probe was dissolved in dimethyl sulfoxide (DMSO) to obtain stock solutions (10 mM). The prepared stock […] concentration solution, containing 0.1% (v/v) DMSO as a cosolvent. For the in vitro kinase […] The excitation and emission fluorescence spectra of the solution before/after addition o f different concentration […] Data analysis:The obtained fluorescence intensity at 570 nm (Excitation wavelength was 440 nm) in each sample was normalized by using the fluorescence intensity of HX103 in the presence of EGFR. Specifically, the fluorescence intensity of HX103 in the presence of EGFR wild-type […] 66"}, "[3]": {"test_system": "biopsy samples from NSCLC patients", "experiment": "HX103-based multicolor FACS, biopsy samples", "format": "cell-based, human"}, "[4]": {"biological_target": "T2, EGFR (Homo sapiens, UniProt P00533)", "T2 construct": "Recombinant human EGFR (amino acids 668–1210, #PR7295B); purchased Thermo Fisher PR7295B", "T2 sequence (P00533 668-1210)": "as above", "experiment": "Fluorescence spectra of HX103 with EGFR, alone or with competing inhibitors (Fig. 2a)", "format": "binding"}, "[5]": {"settings": "Fig. 6d, Mutation, average over patients"}, "[6]": {"settings": "Fig. 6d, Mutation, one value per patient"}, "[7]": {"settings": "Fig. 6d, WT, average over patients"}, "[8]": {"settings": "Fig. 6d, WT, one value per patient"}}, "note": "“And” between values parts separate entries of the source, which are not always exact repeats. Equal entries are not always repeated.", "data": [{"smiles": "COc1cc2c(Nc3ccc(F)c(Cl)c3)ncnc2cc1OCCCNc1ccc(S(=O)(=O)N(C)C)c2nonc12", "note": "[HX103]", "values": [{"measurement": "Fluorescence response of HX103 to EGFR wild-type", "setting": "[1]; EGFR 0.1 µM", "value": "1.163 and 1.321 and 1.006"}, {"measurement": "Fluorescence response of HX103 to EGFR wild-type", "setting": "[1]; EGFR 0.5 µM", "value": "2.913 and 3.724 and 2.102"}, {"measurement": "Fluorescence response of HX103 to EGFR wild-type", "setting": "[1]; EGFR 5 µM", "value": "10.0441 and 11.0703 and 9.62"}, {"measurement": "Fluorescence response of HX103 to EGFR wild-type", "setting": "[1]; EGFR 6 µM", "value": "11.047 and 11.7068 and 10.3878"}, {"measurement": "Stokes shift", "setting": "[2]", "value": 130, "unit": "nm"}, {"measurement": "excitation maximum", "setting": "[2]", "value": "340/440"}, {"measurement": "absolute quantum yield", "setting": "[2]; DMSO", "value": 42.4, "unit": "%"}, {"measurement": "maximum UV absorption", "setting": "[2]; DMSO", "value": "342/438"}, {"measurement": "Fluorescence intensity, HX103 only", "setting": "[2]; wavelength 666 nm", "value": 328.882}, {"measurement": "Fluorescence intensity, HX103 only", "setting": "[2]; wavelength 669 nm", "value": 313.191}, {"measurement": "Fluorescence intensity, HX103 only", "setting": "[2]; wavelength 671 nm", "value": 290.291}, {"measurement": "Fluorescence intensity, HX103 only", "setting": "[2]; wavelength 673 nm", "value": 261.813}, {"measurement": "Fluorescence intensity, HX103 only", "setting": "[2]; wavelength 676 nm", "value": 236.251}, {"measurement": "Fluorescence intensity, HX103 only", "setting": "[2]; wavelength 678 nm", "value": 222.471}, {"measurement": "Fluorescence intensity, HX103 only", "setting": "[2]; wavelength 681 nm", "value": 229.28}, {"measurement": "Fluorescence intensity, HX103 only", "setting": "[2]; wavelength 683 nm", "value": 261.184}, {"measurement": "Fluorescence intensity, HX103 only", "setting": "[2]; wavelength 686 nm", "value": 315.405}, {"measurement": "Fluorescence intensity, HX103 only", "setting": "[2]; wavelength 688 nm", "value": 388.462}, {"measurement": "Fluorescence intensity, HX103 only", "setting": "[2]; wavelength 690 nm", "value": 476.875}, {"measurement": "Fluorescence intensity, HX103 only", "setting": "[2]; wavelength 693 nm", "value": 577.288}, {"measurement": "Fluorescence intensity, HX103 only", "setting": "[2]; wavelength 695 nm", "value": 686.662}, {"measurement": "Fluorescence intensity, HX103 only", "setting": "[2]; wavelength 698 nm", "value": 802.01}, {"measurement": "Fluorescence intensity, HX103 only", "setting": "[2]; wavelength 700 nm", "value": 920.343}, {"measurement": "Fluorescence intensity at 570 nm", "setting": "[2]; Fig. 2b, HX103 alone, n=1-3", "value": "8.2448 and 8.538 and 6.65"}, {"measurement": "absolute quantum yield", "setting": "[2]; PBS", "value": 5.8, "unit": "%"}, {"measurement": "fluorescence emission wavelength", "setting": "[2]; excitation at 440 nm", "value": 570, "unit": "nm"}, {"measurement": "mean ratio of EGFR(+)HX103(+), responders", "setting": "[3]; CR or PR, n = 9", "value": "43.5 ± 2.8", "unit": "%"}, {"measurement": "mean ratio of HX103(+), responders", "setting": "[3]; CR or PR, n = 9", "value": "54.1 ± 3.3", "unit": "%"}, {"measurement": "EGFR(+) HX103 (+) (%) AVE", "setting": "[3]; Fig. 6f, CR/PR, average", "value": 43.5167, "unit": "%"}, {"measurement": "HX103 (+) (%) AVE", "setting": "[3]; Fig. 6f, CR/PR, average", "value": 54.1, "unit": "%"}, {"measurement": "EGFR(+) HX103 (+) (%) AVE", "setting": "[3]; Fig. 6f, SD/PD, average", "value": 9.47, "unit": "%"}, {"measurement": "HX103 (+) (%) AVE", "setting": "[3]; Fig. 6f, SD/PD, average", "value": 17.0025, "unit": "%"}, {"measurement": "EGFR(+) HX103 (+) (%)", "setting": "[3]; Fig. 6g, Patient (No. 3)", "value": 26.16, "unit": "%"}, {"measurement": "EGFR(+) HX103 (+) (%)", "setting": "[3]; Fig. 6h, Patient (No. 7)", "value": 34.2, "unit": "%"}, {"measurement": "HX103(+) (%)", "setting": "[3]; Fig. 6h, Patient (No. 7)", "value": 51.5, "unit": "%"}, {"measurement": "EGFR(+) HX103 (+) (%) AVE", "setting": "[3]; [5]", "value": 34.0833, "unit": "%"}, {"measurement": "HX103 (+) (%) AVE", "setting": "[3]; [5]", "value": 48.2347, "unit": "%"}, {"measurement": "EGFR(+) HX103 (+) (%)", "setting": "[3]; [6]", "value": "47.7% and 46.42% and 26.16% and 37.95% and 54.7% and 42.61% and 34.2% and 4.84% and 50.92% and 41.57% and 2.07% and 30.8% and 55.7% and 4.81%"}, {"measurement": "HX103(+) (%)", "setting": "[3]; [6]", "value": "47.95% and 53.5% and 30.41% and 49.49% and 61.89% and 48.6% and 51.54% and 13.72% and 92.61% and 50.98% and 11.82% and 76% and 77.45% and 45.5% and 12.06%"}, {"measurement": "EGFR(+) HX103 (+) (%) AVE", "setting": "[3]; [7]", "value": 3.4875, "unit": "%"}, {"measurement": "HX103 (+) (%) AVE", "setting": "[3]; [7]", "value": 10.0231, "unit": "%"}, {"measurement": "EGFR(+) HX103 (+) (%)", "setting": "[3]; [8]", "value": "2.605% and 13.7% and 4.44% and 3.27% and 0.6% and -0.34% and 1.35% and 4.89% and 0.098% and 0.24% and 1.08% and 10.76% and 4.24% and 2.1% and 0.447% and 6.32%"}, {"measurement": "HX103(+) (%)", "setting": "[3]; [8]", "value": "5.005% and 21.85% and 10.96% and 7.41% and 3.16% and -1.81% and 3.59% and 12.92% and 4.005% and 1.16% and 7.12% and 18.43% and 19.52% and 10.47% and 20.56% and 16.02%"}, {"measurement": "mean ratio of EGFR(+)HX103(+), non-responders", "setting": "[3]; SD or PD, n = 4", "value": "9.5 ± 5.6", "unit": "%"}, {"measurement": "mean ratio of HX103(+), non-responders", "setting": "[3]; SD or PD, n = 4", "value": "17.0 ± 4.5", "unit": "%"}, {"measurement": "Fluorescence intensity, HX103+EGFR", "setting": "[4]; wavelength 666 nm", "value": 3266.47}, {"measurement": "Fluorescence intensity, HX103+EGFR", "setting": "[4]; wavelength 669 nm", "value": 3104.58}, {"measurement": "Fluorescence intensity, HX103+EGFR", "setting": "[4]; wavelength 671 nm", "value": 2932.33}, {"measurement": "Fluorescence intensity, HX103+EGFR", "setting": "[4]; wavelength 673 nm", "value": 2750.71}, {"measurement": "Fluorescence intensity, HX103+EGFR", "setting": "[4]; wavelength 676 nm", "value": 2569.21}, {"measurement": "Fluorescence intensity, HX103+EGFR", "setting": "[4]; wavelength 678 nm", "value": 2397.75}, {"measurement": "Fluorescence intensity, HX103+EGFR", "setting": "[4]; wavelength 681 nm", "value": 2246.21}, {"measurement": "Fluorescence intensity, HX103+EGFR", "setting": "[4]; wavelength 683 nm", "value": 2119.91}, {"measurement": "Fluorescence intensity, HX103+EGFR", "setting": "[4]; wavelength 686 nm", "value": 2016.43}, {"measurement": "Fluorescence intensity, HX103+EGFR", "setting": "[4]; wavelength 688 nm", "value": 1932.61}, {"measurement": "Fluorescence intensity, HX103+EGFR", "setting": "[4]; wavelength 690 nm", "value": 1865.3}, {"measurement": "Fluorescence intensity, HX103+EGFR", "setting": "[4]; wavelength 693 nm", "value": 1811.29}, {"measurement": "Fluorescence intensity, HX103+EGFR", "setting": "[4]; wavelength 695 nm", "value": 1767.27}, {"measurement": "Fluorescence intensity, HX103+EGFR", "setting": "[4]; wavelength 698 nm", "value": 1729.9}, {"measurement": "Fluorescence intensity, HX103+EGFR", "setting": "[4]; wavelength 700 nm", "value": 1695.87}]}]}
